# Data from patent US8889874B2, “Imidazolone-chalcone derivatives as potential anticancer agent and process for the preparation thereof” (Council of Scientific and Industrial Research, priority 2010, dated 2014).
# Where two headings read alike, the source gives them in different places.
# Columns and labels:
# Assay in all cases: NCI anticancer screen, SRB assay, 48 h
# Format in all cases: cell-based, human
# SK-MEL-28 (melanoma) = system: SK-MEL-28 (melanoma)
# Outline: (§1)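 Sulforhodamine B protein assay read cell growth after 48 h of continuous compound exposure. Dose-response curves per cell line used at least five 10-fold-diluted concentrations, within a panel of fifty-three human lines from nine tumour types.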
# RXF 393 (renal) = system: RXF 393 (renal)
# Outline: as §1
# [1] = system: EKVX (non-small cell lung)
# Outline: as §1
# SNB-75 (CNS) = system: SNB-75 (CNS)
# Outline: as §1
# OVCAR-3 (ovarian) = system: OVCAR-3 (ovarian)
# Outline: as §1
# [2] = system: NCI-H460 (non-small cell lung)
# Outline: as §1
# UACC-62 (melanoma) = system: UACC-62 (melanoma)
# Outline: as §1
# MALME-3M (melanoma) = conditions: MALME-3M
# Outline: as §1
# [3] = system: HOP-62 (non-small cell lung)
# Outline: as §1
# [4] = system: NCI-H522 (non-small cell lung)
# Outline: as §1
# A498 (renal) = system: A498 (renal)
# Outline: as §1
# M14 (melanoma) = system: M14 (melanoma)
# Outline: as §1
# BT-549 (breast) = system: BT-549 (breast)
# Outline: as §1
# UO-31 (renal) = system: UO-31 (renal)
# Outline: as §1
# PC-3 (prostate) = conditions: for GI50: read-out: GI50
# Outline: as §1
# SK-OV-3 (ovarian) = system: SK-OV-3 (ovarian)
# Outline: as §1
# SW-620 (colon) = system: SW-620 (colon)
# Outline: as §1
# SK-MEL-2 (melanoma) = system: SK-MEL-2 (melanoma)
# Outline: as §1
# 786-0 (renal) = system: 786-0 (renal)
# Outline: as §1
# SF-295 (CNS) = system: SF-295 (CNS)
# Outline: as §1
# [5] = system: HOP-92 (non-small cell lung)
# Outline: as §1
# HS 578T (breast) = system: HS 578T (breast)
# Outline: as §1
# MDA-MB-231/ATCC (breast) = system: MDA-MB-231/ATCC (breast)
# Outline: as §1
# OVCAR-8 (ovarian) = system: OVCAR-8 (ovarian)
# Outline: as §1
# [6] = system: NCI-H23 (non-small cell lung)
# Outline: as §1
# [7] = system: NCI-H322M (non-small cell lung)
# Outline: as §1
# [8] = system: K-562 (leukemia cell line)
# Outline: as §1
# SF-539 (CNS) = system: SF-539 (CNS)
# Outline: as §1
# KM12 (colon) = system: KM12 (colon)
# Outline: as §1
# COLO 205 (colon) = system: COLO 205 (colon)
# Outline: as §1
# HT29 (colon) = system: HT29 (colon)
# Outline: as §1
# ACHN (renal) = system: ACHN (renal)
# Outline: as §1
# LOX IMVI (melanoma) = system: LOX IMVI (melanoma)
# Outline: as §1
# SF-268 (CNS) = system: SF-268 (CNS)
# Outline: as §1
# OVCAR-5 (ovarian) = system: OVCAR-5 (ovarian)
# Outline: as §1
# MCF7 (breast) = system: MCF7 (breast)
# Outline: as §1
# [9] = 48 h exposure, SRB, read-out: GI50
smiles,measurement,setting,value
"COc1ccc(-c2cn(-c3cccc(C(=O)/C=C/c4cc(OC)c(OC)c(OC)c4)c3)c(=O)[nH]2)cc1 [5b, 4-(4-methoxyphenyl)-1-3-[(E)-3-(3,4,5-trimethoxyphenyl)-2-propenoyl]phenyl-2,3-dihydro-1H-2-imidazolone]",pGI50 (-log of molar concentration causing 50% inhibition of net cell growth),SK-MEL-28 (melanoma),5.69
same,GI50,SK-MEL-28 (melanoma); [9],2030 nM
same,GI50,"RXF 393 (renal); RXF 393, 48 h exposure, SRB, read-out: GI50",1920 nM
same,pGI50 (-log of molar concentration causing 50% inhibition of net cell growth),RXF 393 (renal); RXF-393,5.72
same,pGI50 (-log of molar concentration causing 50% inhibition of net cell growth),[1],5.38
same,GI50,[1]; [9],4200 nM
same,pGI50 (-log of molar concentration causing 50% inhibition of net cell growth),SNB-75 (CNS),5.34
same,GI50,SNB-75 (CNS); [9],4590 nM
same,pGI50 (-log of molar concentration causing 50% inhibition of net cell growth),OVCAR-3 (ovarian),5.75
same,GI50,OVCAR-3 (ovarian); [9],1780 nM
same,pGI50 (-log of molar concentration causing 50% inhibition of net cell growth),[2],5.81
same,GI50,[2]; [9],1560 nM
same,pGI50 (-log of molar concentration causing 50% inhibition of net cell growth),UACC-62 (melanoma),5.69
same,GI50,UACC-62 (melanoma); [9],2060 nM
same,pGI50 (-log of molar concentration causing 50% inhibition of net cell growth),MALME-3M (melanoma),5.75
same,GI50,MALME-3M (melanoma); [9],1790 nM
same,pGI50 (-log of molar concentration causing 50% inhibition of net cell growth),[3],5.23
same,GI50,[3]; [9],5910 nM
same,pGI50 (-log of molar concentration causing 50% inhibition of net cell growth),[4],5.73
same,GI50,[4]; [9],1850 nM
same,pGI50 (-log of molar concentration causing 50% inhibition of net cell growth),A498 (renal),5.38
same,GI50,A498 (renal); [9],4210 nM
same,pGI50 (-log of molar concentration causing 50% inhibition of net cell growth),M14 (melanoma),5.73
same,GI50,M14 (melanoma); [9],1850 nM
same,pGI50 (-log of molar concentration causing 50% inhibition of net cell growth),BT-549 (breast),5.59
same,GI50,BT-549 (breast); [9],2590 nM
same,pGI50 (-log of molar concentration causing 50% inhibition of net cell growth),UO-31 (renal),5.72
same,GI50,UO-31 (renal); [9],1910 nM
same,pGI50 (-log of molar concentration causing 50% inhibition of net cell growth),PC-3 (prostate); PC-3,5.21
same,GI50,"PC-3 (prostate); PC-3, 48 h exposure, SRB",6220 nM
same,GI50,"PC-3 (prostate); one prostate cancer cell line (PC-3), exposure at least 48 hrs",6220 nM
same,pGI50 (-log of molar concentration causing 50% inhibition of net cell growth),SK-OV-3 (ovarian),5.34
same,GI50,SK-OV-3 (ovarian); [9],4600 nM
same,pGI50 (-log of molar concentration causing 50% inhibition of net cell growth),SW-620 (colon),6.35
same,GI50,SW-620 (colon); [9],450 nM
same,pGI50 (-log of molar concentration causing 50% inhibition of net cell growth),SK-MEL-2 (melanoma),5.58
same,GI50,SK-MEL-2 (melanoma); [9],2630 nM
same,pGI50 (-log of molar concentration causing 50% inhibition of net cell growth),786-0 (renal),5.79
same,GI50,786-0 (renal); [9],1610 nM
same,pGI50 (-log of molar concentration causing 50% inhibition of net cell growth),SF-295 (CNS),5.31
same,GI50,SF-295 (CNS); [9],4950 nM
same,pGI50 (-log of molar concentration causing 50% inhibition of net cell growth),[5],4.83
same,GI50,[5]; [9],14900 nM
same,pGI50 (-log of molar concentration causing 50% inhibition of net cell growth),HS 578T (breast),5.47
same,GI50,HS 578T (breast); [9],3390 nM
same,pGI50 (-log of molar concentration causing 50% inhibition of net cell growth),MDA-MB-231/ATCC (breast),5.26
same,GI50,MDA-MB-231/ATCC (breast); [9],5480 nM
same,pGI50 (-log of molar concentration causing 50% inhibition of net cell growth),OVCAR-8 (ovarian),5.60
same,GI50,OVCAR-8 (ovarian); [9],2530 nM
same,pGI50 (-log of molar concentration causing 50% inhibition of net cell growth),[6],5.79
same,GI50,[6]; [9],1630 nM
same,pGI50 (-log of molar concentration causing 50% inhibition of net cell growth),[7],5.58
same,GI50,[7]; [9],2660 nM
same,pGI50 (-log of molar concentration causing 50% inhibition of net cell growth),[8],5.90
same,GI50,[8]; [9],1270 nM
same,pGI50 (-log of molar concentration causing 50% inhibition of net cell growth),SF-539 (CNS),5.70
same,GI50,SF-539 (CNS); [9],2000 nM
same,pGI50 (-log of molar concentration causing 50% inhibition of net cell growth),KM12 (colon),5.85
same,GI50,KM12 (colon); [9],1420 nM
same,pGI50 (-log of molar concentration causing 50% inhibition of net cell growth),COLO 205 (colon); COLO205,5.74
same,GI50,"COLO 205 (colon); COLO 205, 48 h exposure, SRB, read-out: GI50",1840 nM
same,pGI50 (-log of molar concentration causing 50% inhibition of net cell growth),HT29 (colon),5.89
same,GI50,HT29 (colon); [9],1280 nM
same,pGI50 (-log of molar concentration causing 50% inhibition of net cell growth),ACHN (renal),5.74
same,GI50,ACHN (renal); [9],1820 nM
same,pGI50 (-log of molar concentration causing 50% inhibition of net cell growth),LOX IMVI (melanoma),6.14
same,GI50,LOX IMVI (melanoma); [9],720 nM
same,pGI50 (-log of molar concentration causing 50% inhibition of net cell growth),SF-268 (CNS),5.49
same,GI50,SF-268 (CNS); [9],3210 nM
same,pGI50 (-log of molar concentration causing 50% inhibition of net cell growth),OVCAR-5 (ovarian),5.58
same,GI50,OVCAR-5 (ovarian); [9],2640 nM
same,pGI50 (-log of molar concentration causing 50% inhibition of net cell growth),MCF7 (breast),6.36
same,GI50,MCF7 (breast); [9],440 nM
